Measured values published in US8143394B2, “Pyrido(3,2-d)pyrimidines useful for treating viral infections” (Gilead Sciences, Inc., priority 2006, dated 2012).
pEC50: −log10 of the molar value.

Tests used:
HCV replicon = assay: Anti-HCV replicon assay (EC50, luciferase readout); format: cell-based; details: Hepatitis C virus, 72 h; human hepatoma Huh-7 cell line harbouring a HCV replicon; 3 days; luciferase; read-out: EC50
Method: (§1) The anti-HCV activity of the pyrido[3,2-d]pyrimidine derivatives of this invention was tested in a human hepatoma Huh-7 cell line harbouring a HCV replicon. The assay comprised the following steps:
(§2) Step 1: Compound Preparation and Serial Dilution
(§3) • 1. for water soluble pyrido[3,2-d]pyrimidine derivatives, a volume of 500 μL of solution in cell media (DMEM, 10% FBS, P/S, L-Glutamine) was prepared with a concentration being twice the concentration of the starting final serial dilution concentration. A volume of 150 μL of the solution was added to the pre-specified wells in column 1 of a 96-well cell culture plate (PerkinElmer, white plate, cat. #6005181, for EC50 assay; black plate, cat. #6005182 for CC50 assay). The rest of the plate, columns 2-12, was filled with 100 μL of cell media. The plate was then placed on a Precision 2000 Workstation to start the serial dilution. Compounds were diluted three times each step from column 1 to column 10. Column 11 was used as a blank control (no compound added). • 2. for pyrido[3,2-d]pyrimidine derivatives requiring DMSO to dissolve, serial dilution is performed in 50% DMSO in a 384-well plate. A solution containing a compound at 100-fold concentration of the starting final serial dilution concentration was prepared in 50% DMSO and added to the pre-specified wells in column 1 of a polypropylene 384-well plate. The plate was then placed on a Precision 2000 Workstation to start the serial dilution. After the serial dilution, a volume of 2 μL of the solution was transferred from the 384-well plate to a 96-well cell culture plate containing 100 μL of cell media on a Biomek FX Workstation. The DMSO concentration in the final assay condition was 0.5% after cells are added to the plate and the total volume in each well is brought to 200 μL. Step 2: to each well of the serial dilution plate prepared above, 100 μL of cell media containing 6000 suspended Huh-7 HCV replicon cells was added with a Multidrop workstation. The plates were incubated for 3 days at 37° C. with 5% CO2. Step 3: Detection: • a) for the EC50 assay, the media in a 96-well cell culture plate was aspirated with a Biotek EL405 plate-washer. A volume of 200 μL of a solution containing a 1:1 mixture of cell-lysis buffer (Promega, Luciferase Cell Culture Lysis 5X Reagent, cat. #E1531) and luciferase substrate solution (Promega, Luciferase Assay, cat. # E4550) was added to each well of the plate with Multidrop. The plate was incubated for 30 minutes at room temperature before the luminescence signal was measured with a TopCount plate-reader. • b) for the CC50 assay, a volume of 100 μL of pre-mixed CellTiter-Glo (Promega, cat. # G7572) solution is added directly to the cell culture in each well of the plate and the luminescence signal is measured with a TopCount plate-reader after 10 minutes of incubation at room temperature.
(§4) Results in table 13 are expressed by the following data: • the 50% effective concentration (EC50), i.e. the concentration that protects 50% of the cell monolayer from virus-induced cythopathic effect, and • the 50% cytostatic concentration (CC50), i.e. the concentration that results in 50% inhibition of cell growth.

[1] = CC50 assay (CellTiter-Glo) in Huh-7 HCV replicon cells; format: cell-based, human; details: human, 50% cytostatic concentration
Method: as §1, §2, §3, §4

Compound	pEC50 (HCV replicon)	CC50 at 3 days [1] [nM]
CCOc1nc(N)nc2ccc(-c3ccc(NC(=O)[C@@H](N)CO)cc3)nc12 [Example 41, 2-Amino-N-[4-(2-amino-4-ethoxy-pyrido[3,2-d]pyrimidin-6-yl)-phenyl]-3-hydroxy-propionamide]	> 6.52	> 20000
CCOc1nc(N)nc2ccc(-c3cccc(NS(=O)(=O)c4cn(C)cn4)c3)nc12 [Example 49, 1-Methyl-1H-imidazole-4-sulfonic acid [3-(2-amino-4-ethoxy-pyrido[3,2-d]pyrimidin-6-yl)-phenyl]-amide]	6.00 to 6.52	> 20000
CCOc1nc(N)nc2ccc(-c3ccc(NC(=O)[C@H](C)N)c(OC)c3)nc12 [Example 38, 2-Amino-N-[4-(2-amino-4-ethoxy-pyrido[3,2-d]pyrimidin-6-yl)-2-methoxy-phenyl]-propionamide]	> 6.52	> 20000
CCOc1nc(N)nc2ccc(-c3ccc(NC(=O)C4(N)CC4)c(F)c3)nc12 [Example 30, 1-Amino-cyclopropanecarboxylic acid [4-(2-amino-4-ethoxy-pyrido[3,2-d]pyrimidin-6-yl)-2-fluoro-phenyl]-amide]	> 6.52	> 20000
CC(C)Oc1nc(N)nc2ccc(-c3ccc(C(=O)NC4CCCC4)cc3)nc12 [Example 68, 4-(2-Amino-4-isopropoxy-pyrido[3,2-d]pyrimidin-6-yl)-N-cyclopentyl-benzamide]	6.00 to 6.52	> 20000
CC(C)Oc1nc(N)nc2ccc(-c3ccc(C(=O)NC4CCCCC4)cc3)nc12 [Example 65, 4-(2-Amino-4-isopropoxy-pyrido[3,2-d]pyrimidin-6-yl)-N-cyclohexyl-benzamide]	< 6.00	> 20000
CC(C)(CN1CCCC1)NC(=O)c1ccc(-c2ccc3nc(N)nc(O[C@H]4CCOC4)c3n2)cc1 [Example 80, 4-[2-Amino-4-(tetrahydro-furan-3-yloxy)-pyrido[3,2-d]pyrimidin-6-yl]-N-(1,1-dimethyl-2-pyrrolidin-1-yl-ethyl)-benzamide]	> 6.52	10000 to 20000
CCOc1nc(N)nc2ccc(-c3ccc(NC(=O)C4CC4)cc3)nc12 [Example 39, Cyclopropanecarboxylic acid [4-(2-amino-4-ethoxy-pyrido[3,2-d]pyrimidin-6-yl)-phenyl]-amide]	> 6.52	> 20000
CCC(=O)Nc1ccc(-c2ccc3nc(N)nc(NCCOC)c3n2)cc1 [Example 8, N-{4-[2-Amino-4-(2-methoxy-ethylamino)-pyrido[3,2-d]pyrimidin-6-yl]-phenyl}-propionamide]	> 6.52	> 20000
CC(=O)Nc1ccc(-c2ccc3nc(N)nc(N4CCS(=O)(=O)CC4)c3n2)cc1 [Example 15, N-{4-[2-Amino-4-(1,1-dioxo-1λ^6-thiomorpholin-4-yl)-pyrido[3,2-d]pyrimidin-6-yl]-phenyl}-acetamide]	> 6.52	> 20000
COC(=O)Nc1ccc(-c2ccc3nc(N)nc(NCCS(C)(=O)=O)c3n2)cc1 [Example 6, {4-[2-Amino-4-(2-methanesulfonyl-ethylamino)-pyrido[3,2-d]pyrimidin-6-yl]phenyl}-carbamic acid methyl ester]	6.00 to 6.52	10000 to 20000
CCOc1nc(N)nc2ccc(-c3ncc(N)s3)nc12 [Example 47, 6-(5-amino-thiazol-2-yl)-4-ethoxy-pyrido[3,2-d]pyrimidin-2-ylamine]	> 6.52	10000 to 20000
CNC(=O)c1ccc(-c2ccc3nc(N)nc(OC(C)C)c3n2)cc1Cl [Example 71, 4-(2-Amino-4-isopropoxy-pyrido[3,2-d]pyrimidin-6-yl)-2-chloro-N-methyl-benzamide]	< 6.00	> 20000
CCOc1nc(N)nc2ccc(-c3ccc(NC(=O)CC)cc3)nc12 [Example 46, N-[4-(2-Amino-4-ethoxy-pyrido[3,2-d]pyrimidin-6-yl)-phenyl]-propionamide]	> 6.52	> 20000
CONC(=O)c1ccc(-c2ccc3nc(N)nc(OC(C)C)c3n2)cc1 [Example 70, 4-[2-Amino-4-isopropoxy-pyrido[3,2-d]pyrimidin-6-yl]-N-methoxy-benzamide]	> 6.52	> 20000
CCOc1nc(N)nc2ccc(-c3ccc(C(=O)NC(C)C)cc3)nc12 [Example 61, 4-(2-Amino-4-ethoxy-pyrido[3,2-d]pyrimidin-6-yl)-N-isopropyl-benzamide]	6.00 to 6.52	> 20000
CC(C)C(=O)Nc1ccc(-c2ccc3nc(N)nc(N4CCS(=O)(=O)CC4)c3n2)cc1 [Example 14, N-{4-[2-Amino-4-(1,1-dioxo-1λ^6-thiomorpholin-4-yl)-pyrido[3,2-d]pyrimidin-6-yl]-phenyl}-isobutyramide]	> 6.52	> 20000
CCOc1nc(N)nc2ccc(-c3ccc(C(=O)NC4CCCC4)cc3)nc12 [Example 59, 4-(2-Amino-4-ethoxy-pyrido[3,2-d]pyrimidin-6-yl)-N-cyclopentyl-benzamide]	6.00 to 6.52	> 20000
Nc1nc(O[C@H]2CCOC2)c2nc(-c3ccc(C(=O)NCCN4CCCC4)cc3)ccc2n1 [Example 83, 4-[2-Amino-4-(tetrahydro-furan-3-yloxy)-pyrido[3,2-d]pyrimidin-6-yl]-N-(2-pyrrolidin-1-yl-ethyl)-benzamide]	> 6.52	> 20000
CCC(=O)Nc1ccc(-c2ccc3nc(N)nc(OCCOC)c3n2)cc1 [Example 18, N-{4-[2-Amino-4-(2-methoxy-ethoxy)-pyrido[3,2-d]pyrimidin-6-yl]-phenyl}-propionamide]	6.00 to 6.52	> 20000
CCOc1nc(N)nc2ccc(-c3cccc(NS(=O)(=O)c4c(C)noc4C)c3)nc12 [Example 50, 3,5-Dimethyl-isoxazole-4-sulfonic acid [3-(2-amino-4-ethoxy-pyrido[3,2-d]pyrimidin-6-yl)-phenyl]-amide]	6.00 to 6.52	> 20000
CC(C)Oc1nc(N)nc2ccc(-c3ccc(C(=O)NC4CC4)c(Cl)c3)nc12 [Example 72, 4-(2-Amino-4-isopropoxy-pyrido[3,2-d]pyrimidin-6-yl)-2-chloro-N-cyclopropyl-benzamide]	< 6.00	> 20000
CCOc1nc(N)nc2ccc(-c3cccc(NS(=O)(=O)CC)c3)nc12 [Example 54, Ethanesulfonic acid [3-(2-amino-4-ethoxy-pyrido[3,2-d]pyrimidin-6-yl)-phenyl]-amide]	> 6.52	> 20000
CCOc1nc(N)nc2ccc(-c3cccc(NS(C)(=O)=O)c3)nc12 [Example 45, N-[3-(2-Amino-4-ethoxy-pyrido[3,2-d]pyrimidin-6-yl)-phenyl]-methanesulfonamide]	> 6.52	> 20000
CS(=O)(=O)Nc1cccc(-c2ccc3nc(N)nc(O[C@@H]4CCOC4)c3n2)c1 [Example 26, N-{3-[2-Amino-4-(tetrahydro-furan-3-yloxy)-pyrido[3,2-d]pyrimidin-6-yl]-phenyl}-methanesulfonamide]	> 6.52	> 20000
COC(=O)Nc1ccc(-c2ccc3nc(N)nc(N4CCS(=O)(=O)CC4)c3n2)cc1 [Example 13, {4-[2-Amino-4-(1,1-dioxo-1λ^6-thiomorpholin-4-yl)-pyrido[3,2-d]pyrimidin-6-yl]-phenyl}-carbamic acid methyl ester]	> 6.52	> 20000
